Experimental data taken from US20260182217A1, “DISPLAY PANEL, ELECTRONIC DEVICE INCLUDING THE SAME, AND METHOD FOR MANUFACTURING THE DISPLAY PANEL” (priority 2024, published 2026).

Experiment: physchem

Compound `CCCCCCCCC(=O)O` [A11] has a pKa of 5.
